Experimental data taken from US11753397B2, “Cereblon binders for the degradation of ikaros” (C4 Therapeutics, Inc., priority 2018, dated 2023).

Tested on: NCIH929.1 cells
Experiment: Cell viability assay (CellTiter-Glo 2.0, ATP quantification)
Format: cell-based
Settings: NCIH929.1 cell viability, CellTiter-Glo 2.0, 96 hr incubation, top concentration 1 μM
Procedure, shortened: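 Cells seeded at 750/well in RPMI with 10% FBS and 0.05 mM 2-mercaptoethanol, exposed 96 h at 37 °C to 10-point half-log dilutions in duplicate, top 1 μM. Viability by CellTiter-Glo 2.0 ATP luminescence, with a day-0 read as cytostatic baseline (CT0).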

Structure (SMILES) | GI50
CC(C)(C)OC(=O)N1CCC(n2cc(C(Nc3cccc4c3C(=O)N(C3CCC(=O)NC3=O)C4=O)c3cn(C4CCN(C(=O)OC(C)(C)C)CC4)nn3)nn2)CC1 (stereo not shown) [Compound 203, tert-Butyl 4-[4-[[1-(1-tert-butoxycarbonyl-4-piperidyl)triazol-4-yl]-[[2-(2,6-dioxo-3-piperidyl)-1,3-dioxo-isoindolin-4-yl]amino]methyl]triazol-1-yl]piperidine-1-carboxylate] | > 0.1 µM
CC1(C(=O)N2CCC(n3cc(CNc4cccc5c4C(=O)N(C4CCC(=O)NC4=O)C5=O)cn3)CC2)CC1 (stereo not shown) [Compound 36, 2-(2,6-dioxopiperidin-3-yl)-4-(((1-(1-(1-methylcyclopropane-1-carbonyl)piperidin-4-yl)-1H-pyrazol-4-yl)methyl)amino)isoindoline-1,3-dione] | < 0.1 µM
Cc1nn(C2CCN(C(=O)C3(C)CCC3)CC2)c(C)c1CNc1cccc2c1C(=O)N(C1CCC(=O)NC1=O)C2=O (stereo not shown) [Compound 171, 4-(((3,5-Dimethyl-1-(1-(1-methylcyclobutane-1-carbonyl)piperidin-4-yl)-1H-pyrazol-4-yl)methyl)amino)-2-(2,6-dioxopiperidin-3-yl)isoindoline-1,3-dione] | < 0.1 µM
Cc1cccc(-c2nc(CC(=O)N3CCC(n4cc(CNc5cccc6c5C(=O)N(C5CCC(=O)NC5=O)C6=O)cn4)CC3)c(C)o2)c1 (stereo not shown) [Compound 115, 2-(2,6-dioxopiperidin-3-yl)-4-(((1-(1-(2-(5-methyl-2-(m-tolyl)oxazol-4-yl)acetyl)piperidin-4-yl)-1H-pyrazol-4-yl)methyl)amino)isoindoline-1,3-dione] | < 0.1 µM
O=C1CCC(N2C(=O)c3cccc(NCc4cnn(C5CCCCC5)c4)c3C2=O)C(=O)N1 (stereo not shown) [Compound 158, 4-[(1-cyclohexylpyrazol-4-yl)methylamino]-2-(2,6-dioxo-3-piperidyl)isoindoline-1,3-dione] | < 0.1 µM
O=C1CCC(N2C(=O)c3cccc(NCc4cnn(C5CCN(C6CC7(CCC7)C6)CC5)c4)c3C2=O)C(=O)N1 (stereo not shown) [Compound 135, 2-(2,6-dioxopiperidin-3-yl)-4-(((1-(1-(spiro[3.3]heptan-2-yl)piperidin-4-yl)-1H-pyrazol-4-yl)methyl)amino)isoindoline-1,3-dione] | < 0.1 µM
CN1CCC(C)(C(=O)N2CCC(n3cc(CNc4cccc5c4C(=O)N(C4CCC(=O)NC4=O)C5=O)cn3)CC2)CC1 (stereo not shown) [Compound 55, 4-(((1-(1-(1,4-dimethylpiperidine-4-carbonyl)piperidin-4-yl)-1H-pyrazol-4-yl)methyl)amino)-2-(2,6-dioxopiperidin-3-yl)isoindoline-1,3-dione] | < 0.1 µM
O=C1CCC(N2C(=O)c3cccc(NCc4cnn(C5CCN(C(=O)C6CCN(C(=O)c7ccccc7)CC6)CC5)c4)c3C2=O)C(=O)N1 (stereo not shown) [Compound 101, 4-(((1-(1-(1-benzoylpiperidine-4-carbonyl)piperidin-4-yl)-1H-pyrazol-4-yl)methyl)amino)-2-(2,6-dioxopiperidin-3-yl)isoindoline-1,3-dione] | < 0.1 µM
CC1(C(=O)N2CCC(n3cc(CNc4cccc5c4C(=O)N(C4CCC(=O)NC4=O)C5=O)cn3)CC2)CCCCC1 (stereo not shown) [Compound 63, 2-(2,6-dioxopiperidin-3-yl)-4-(((1-(1-(1-methylcyclohexane-1-carbonyl)piperidin-4-yl)-1H-pyrazol-4-yl)methyl)amino)isoindoline-1,3-dione] | < 0.001 µM
CC1(C)C[C@@H](n2cc(CNc3cccc4c3C(=O)N(C3CCC(=O)NC3=O)C4=O)cn2)CCN1C(=O)C12C3C4C5C3C1C5C42 (stereo partly drawn) [Compound 197, 4-[[1-[(4S)-1-(Cubane-1-carbonyl)-2,2-dimethyl-4-piperidyl]pyrazol-4-yl]methylamino]-2-(2,6-dioxo-3-piperidyl)isoindoline-1,3-dione] | < 0.1 µM
O=C1CCC(N2C(=O)c3cccc(NCc4cnn(C5CCN(CC6CCCC6)CC5)c4)c3C2=O)C(=O)N1 (stereo not shown) [Compound 128, 4-(((1-(1-(cyclopentylmethyl)piperidin-4-yl)-1H-pyrazol-4 yl)methyl)amino)-2-(2,6-dioxopiperidin-3-yl)isoindoline-1,3-dione] | < 0.1 µM
O=C1CCC(N2C(=O)c3cccc(NCc4cnn(C5CCN(C(=O)C6(c7ccccc7)COC6)CC5)c4)c3C2=O)C(=O)N1 (stereo not shown) [Compound 69, 2-(2,6-dioxopiperidin-3-yl)-4-(((1-(1-(3-phenyloxetane-3-carbonyl)piperidin-4-yl)-1H-pyrazol-4-yl)methyl)amino)isoindoline-1,3-dione] | < 0.1 µM
COCC(=O)N1CCC(n2cc(CNc3cccc4c3C(=O)N(C3CCC(=O)NC3=O)C4=O)cn2)CC1 (stereo not shown) [Compound 31, 2-(2,6-dioxopiperidin-3-yl)-4-(((1-(1-(2-methoxyacetyl)piperidin-4-yl)-1H-pyrazol-4-yl)methyl)amino)isoindoline-1,3-dione] | < 0.1 µM
CO[C@H]1CC[C@H](C(=O)N2CCC(n3cc(CNc4cccc5c4C(=O)N(C4CCC(=O)NC4=O)C5=O)cn3)CC2)CC1 (stereo partly shown) [Compound 15, 2-(2,6-dioxopiperidin-3-yl)-4-(((1-(1-((1r,4r)-4-methoxycyclohexane-1-carbonyl)piperidin-4-yl)-1H-pyrazol-4-yl)methyl)amino)isoindoline-1,3-dione] | < 0.1 µM
O=C1CCC(N2C(=O)c3cccc(NCc4cnn(C5CCN(C(=O)C67CC8CC(CC(C8)C6)C7)CC5)c4)c3C2=O)C(=O)N1 (stereo not shown) [Compound 44, 4-(((1-(1-(adamantane-1-carbonyl)piperidin-4-yl)-1H-pyrazol-4-yl)methyl)amino)-2-(2,6-dioxopiperidin-3-yl)isoindoline-1,3-dione] | < 0.001 µM
O=C1CCC(N2C(=O)c3cccc(NCc4cnn(C5CCN(C(=O)C6(Cc7ccc(F)cc7)CC6)CC5)c4)c3C2=O)C(=O)N1 (stereo not shown) [Compound 92, 2-(2,6-dioxopiperidin-3-yl)-4-(((1-(1-(1-(4-fluorobenzyl)cyclopropane-1-carbonyl)piperidin-4-yl)-1H-pyrazol-4-yl)methyl)amino)isoindoline-1,3-dione] | < 0.1 µM
CC1(CN2CCC(n3cc(CNc4cccc5c4C(=O)N(C4CCC(=O)NC4=O)C5=O)cn3)CC2)CCCC1 (stereo not shown) [Compound 138, 2-(2,6-dioxopiperidin-3-yl)-4-(((1-(1-((1-methylcyclopentyl)methyl)piperidin-4-yl)-1H-pyrazol-4-yl)methyl)amino)isoindoline-1,3-dione] | < 0.001 µM
[2H][C@]1(N2C(=O)c3cccc(NCc4cnn(C5CCN(C(=O)OC(C)(C)C)CC5)c4)c3C2=O)CCC(=O)NC1=O (single isomer, unassigned) [Compound 186] | < 0.1 µM
CN(CCCn1cc(CNc2cccc3c2C(=O)N(C2CCC(=O)NC2=O)C3=O)cn1)C(=O)OC(C)(C)C (stereo not shown) [Compound 154, tert-butyl N-[3-[4-[[[2-(2,6-dioxo-3-piperidyl)-1,3-dioxo-isoindolin-4-yl]amino]methyl]pyrazol-1-yl]propyl]-N-methyl-carbamate] | < 0.1 µM
O=C1CCC(N2C(=O)c3cccc(NCc4cnn(C5CCN(C6CCCCC6)CC5)c4)c3C2=O)C(=O)N1 (stereo not shown) [Compound 133, 4-(((1-(1-cyclohexylpiperidin-4-yl)-1H-pyrazol-4-yl)methyl)amino)-2-(2,6-dioxopiperidin-3-yl)isoindoline-1,3-dione] | < 0.1 µM
O=C1CCC(N2C(=O)c3cccc(NCc4cnn(C5CCN(C(=O)c6cccc(Cn7cccn7)c6)CC5)c4)c3C2=O)C(=O)N1 (stereo not shown) [Compound 119, 4-(((1-(1-(3-((1H-pyrazol-1-yl)methyl)benzoyl)piperidin-4-yl)-1H-pyrazol-4-yl)methyl)amino)-2-(2,6-dioxopiperidin-3-yl)isoindoline-1,3-dione] | < 0.1 µM
Cn1nc(C2CC2)cc1CC(=O)N1CCC(n2cc(CNc3cccc4c3C(=O)N(C3CCC(=O)NC3=O)C4=O)cn2)CC1 (stereo not shown) [Compound 125, 4-(((1-(1-(2-(3-cyclopropyl-1-methyl-1H-pyrazol-5-yl)acetyl)piperidin-4-yl)-1H-pyrazol-4-yl)methyl)amino)-2-(2,6-dioxopiperidin-3-yl)isoindoline-1,3-dione] | < 0.1 µM
O=C1CCC(N2C(=O)c3cccc(NCc4cnn(C5CCN(C(=O)OCc6ccccc6)CC5)c4)c3C2=O)C(=O)N1 (stereo not shown) [Compound 146, benzyl 4-(4-(((2-(2,6-dioxopiperidin-3-yl)-1,3-dioxoisoindolin-4-yl)amino)methyl)-1H-pyrazol-1-yl)piperidine-1-carboxylate] | < 0.1 µM
O=C1CCC(N2C(=O)c3cccc(NCc4cnn(C5CCCC5)c4)c3C2=O)C(=O)N1 (stereo not shown) [Compound 151, 4-[(1-cyclopentylpyrazol-4-yl)methylamino]-2-(2,6-dioxo-3-piperidyl)isoindoline-1,3-dione] | < 0.1 µM
O=C1CCC(N2C(=O)c3cccc(NCc4cnn(C5CCN(C(=O)N6CCCCC6)CC5)c4)c3C2=O)C(=O)N1 (stereo not shown) [Compound 88, 2-(2,6-dioxopiperidin-3-yl)-4-(((1-(1-(piperidine-1-carbonyl)piperidin-4-yl)-1H-pyrazol-4-yl)methyl)amino)isoindoline-1,3-dione] | < 0.1 µM
O=C1CCC(N2C(=O)c3cccc(NCc4cnn(C5CCN(CC6(C#CC7CC7)CCC6)CC5)c4)c3C2=O)C(=O)N1 (stereo not shown) [Compound 204, 4-({1-[1-(1-Cyclopropylethynyl-cyclobutylmethyl)-piperidin-4-yl]-1H-pyrazol-4-ylme-thyl}-amino)-2-(2,6-dioxo-piperidin-3-yl)-isoindole-1,3-dione] | < 0.1 µM
CC(=O)NCC1CCC(C(=O)N2CCC(n3cc(CNc4cccc5c4C(=O)N(C4CCC(=O)NC4=O)C5=O)cn3)CC2)CC1 (stereo not shown) [Compound 99, N-((4-(4-(4-(((2-(2,6-dioxopiperidin-3-yl)-1,3-dioxoisoindolin-4-yl)amino)methyl)-1H-pyrazol-1-yl)piperidine-1-carbonyl)cyclohexyl)methyl)acetamide] | < 0.1 µM
O=C1CCC(N2C(=O)c3cccc(NCc4cnn(C5CCC(CC6CCCCC6)CC5)c4)c3C2=O)C(=O)N1 (stereo not shown) [Compound 177, 4-(((1-(4-(Cyclohexylmethyl)cyclohexyl)-1H-pyrazol-4-yl)methyl)amino)-2-(2,6-dioxopiperidin-3-yl)isoindoline-1,3-dione] | < 0.1 µM
